In patent US20260193170A1 (University of Copenhagen, priority 2022, published 2026) one finds Ki data, which are given here for 30 compounds.

This test has as its target T1, human Keap1 Kelch domain (Homo sapiens, UniProt Q14145).
T1 construct: human Keap1 Kelch domain (residue 321-609, UniProt Q14145); made in house; host or cells: Escherichia coli BL21 (DE3) pLysS, pRSET A vector
Kind of test: Fluorescence polarization (FP) competition assay, Cy5-Nrf2 peptide probe. Conditions: heterologous competition FP; Keap1 Kelch 14 nM, Cy5-Nrf2 probe 3 nM, 4% DMSO; mean ± SEM. Type of test: binding. How it is done: The binding affinities between the fluorescent peptide probe Cy5-Nrf2 (SEQ: Cy5-[…]-NH2) and the human Keap1 Kelch domain were determined as Kd values by saturation binding experiments, where increasing concentrations of Keap1 (0-300 nM) were added to a fixed concentration of peptide probe (3 nM). The assay was performed in a 1× HBSTET buffer (10 mM HEPES, 150 mM NaCl, 0.005% Tween20, 3 mM ethylenediaminetetraacetic acid (EDTA), 1 mM TCEP, pH=7.4) using black flat-bottom 384-well plates (Corning Life Sciences, NY), a volume of 30 μL/well, and a final DMSO concentration of 4% or 8%. The assay plate was spun down to ascertain proper mixing and removal of potential air bubbles and incubated for 10-15 min at room temperature before measuring the FP levels on a Safire2 plate reader (Tecan, Mannedorf, Switzerland). The g-factor was adjusted at each experiment so that a series of three blank wells containing probe but no Keap1 Kelch defined the baseline FP value. The Cy5-Nrf2 probe was measured at excitation/emission values of 635:670 nm. The FP values were fitted to the one-site specific binding equation: Y=Bmax×X/(Kd+X), with Bmax being the maximal FP value, X the Keap1 Kelch concentration, and Y the variable FP values. The Kd values were derived from the resulting binding saturation curve as being equal to the Keap1 Kelch concentration, where the curve is half-saturated.
The affinities between nonfluorescent small molecule Keap1 inhibitors and Keap1 Kelch were determined as Ki values in a heterologous competition FP binding assay. This was done by adding increasing concentration of test compound (2-fold serial dilutions, 12 concentrations tested per inhibition curve as duplicates) to a fixed concentration of Keap1 Kelch (14 nM) and the Cy5-Nrf2 peptide probe (3 nM) in the same HBSTET buffer and conditions as described above (final DMSO concentrations were 4%). FP values were fitted to the equation Y=Bottom+(Top−Bottom)/[1+(10^HillSlope×(log IC50−X))], where X is the logarithmic value of compound concentration. Hereby, the IC50 value was obtained, which together with the […] value and probe and Keap1 Kelch concentrations was used to calculate the theoretical competitive inhibition constant, the Ki value. 43 Ki values are shown as mean±SEM (standard error of mean) if based on two or more individual measurements.
Background: Polarisation of emitted light reports the rotation of a fluorescent probe.

T1 sequence (Q14145 321-609): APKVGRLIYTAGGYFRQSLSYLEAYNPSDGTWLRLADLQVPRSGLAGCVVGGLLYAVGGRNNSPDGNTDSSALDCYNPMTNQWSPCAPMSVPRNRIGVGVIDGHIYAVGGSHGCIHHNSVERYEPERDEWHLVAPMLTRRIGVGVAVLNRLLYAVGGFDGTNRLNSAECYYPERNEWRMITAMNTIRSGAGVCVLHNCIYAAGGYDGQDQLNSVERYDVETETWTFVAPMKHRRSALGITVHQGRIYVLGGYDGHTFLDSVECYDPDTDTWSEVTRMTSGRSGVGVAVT

Consider `COc1ccc(C(CC(=O)O)c2ccc3ccc(OCC(=O)NC4CCCCCC4)cc3c2)cc1` (stereo not drawn) [2d, 3-(7-(2-(Cycloheptylamino)-2-oxoethoxy)naphthalen-2-yl)-3-(4-methoxyphenyl)propanoic acid], for which the inhibitory constant (Ki) is 0.032 ± 0.03 µM.

Regarding `Cc1ccc(Cl)cc1C(CC(=O)O)c1ccc2ccc(OCC(=O)NC3C=CCCC3)cc2c1` (stereo not drawn) [4h, 3-(5-Chloro-2-methylphenyl)-3-(7-(2-(cyclohex-2-en-1-ylamino)-2-oxoethoxy)naphthalen-2-yl)propanoic acid], the inhibition constant (Ki) came to 0.048 ± 0.005 µM. The same measure for `COc1ccc(C(CC(=O)O)c2ccc3ccc(OCC(=O)NC4CCCCCC4)cc3c2)cc1C` (stereo not drawn) [2j, 3-(7-(2-(Cycloheptylamino)-2-oxoethoxy)naphthalen-2-yl)-3-(4-methoxy-3-methylphenyl)propanoic acid]: 0.61 ± 0.06 µM; for `CCn1nnc2c(C)c(C(CC(=O)O)c3ccc4ccc(OCC(=O)NC5CCCCCC5)cc4c3)ccc21` (stereo not drawn) [2p, 3-(7-(2-(cycloheptylamino)-2-oxoethoxy)naphthalen-2-yl)-3-(1-ethyl-4-methyl-1H-benzo[d][1,2,3]triazol-5-yl)propanoic acid]: 0.0059 ± 0.0007 µM; for `O=C(O)CC(c1ccc2ccc(OCC(=O)NC3CCCCC3)cc2c1)c1ccc2occc2c1` (stereo not drawn) [3o, 3-(Benzofuran-5-yl)-3-(7-(2-(cyclohexylamino)-2-oxoethoxy)naphthalen-2-yl)propanoic acid]: 0.068 ± 0.012 µM.

Regarding `O=C(O)CC(c1ccc2c(c1)OCCO2)c1ccc2ccc(OCC(=O)NC3CCCCC3)cc2c1` (stereo not drawn) [3l, 3-(7-(2-(cyclohexylamino)-2-oxoethoxy)naphthalen-2-yl)-3-(2,3-dihydrobenzo[b][1,4]dioxin-6-yl)propanoic acid], the Ki came to 0.029 ± 0.001 µM.

On to `Cc1cc2c(cc1C(CC(=O)O)c1ccc3ccc(OCC(=O)NC4C=CCCC4)cc3c1)OCO2` (stereo not drawn) [4b, 3-(7-(2-(Cyclohex-2-en-1-ylamino)-2-oxoethoxy)naphthalen-2-yl)-3-(6-methylbenzo[d][1,3]dioxol-5-yl)propanoic acid], for which the inhibition constant Ki came to 0.004 ± 0.001 µM. The same measure for `O=C(O)CC(c1ccc(O)cc1)c1ccc2ccc(OCC(=O)NC3CCCCCC3)cc2c1` (stereo not drawn) [2b, 3-(7-(2-(Cycloheptylamino)-2-oxoethoxy)naphthalen-2-yl)-3-(4-hydroxyphenyl)propanoic acid]: 0.181 ± 0.02 µM. Regarding `Cc1cc2c(cc1C(CC(=O)O)c1ccc3ccc(OCC(=O)NC4CCCCC4)cc3c1)OC(F)(F)O2` (stereo not drawn) [3r], the inhibition constant Ki stood at 0.007 ± 0.001 µM. The same measure for `O=C(O)CC(c1ccc2c(c1)OCO2)c1ccc2ccc(OCC(=O)NC3C=CCCC3)cc2c1` (stereo not drawn) [4a, 3-(Benzo[d][1,3]dioxol-5-yl)-3-(7-(2-(cyclohex-2-en-1-ylamino)-2-oxoethoxy)naphthalen-2-yl)propanoic acid]: 0.025 ± 0.002 µM. `CCOc1ccc(C(CC(=O)O)c2ccc3ccc(OCC(=O)NC4CCCCCC4)cc3c2)cc1` (stereo not drawn) [2e, 3-(7-(2-(Cycloheptylamino)-2-oxoethoxy)naphthalen-2-yl)-3-(4-ethoxyphenyl)propanoic acid]: the inhibition constant Ki amounted to 0.041 ± 0.005 µM.

For the compound `O=C(O)CC(c1cccc(O)c1)c1ccc2ccc(OCC(=O)NC3CCCCCC3)cc2c1` (stereo not drawn) [2g, 3-(7-(2-(Cycloheptylamino)-2-oxoethoxy)naphthalen-2-yl)-3-(3-hydroxyphenyl)propanoic acid], the Ki is 0.203 ± 0.03 µM. Consider `O=C(O)CC(c1ccc2c(c1)OCO2)c1ccc2ccc(OCC(=O)NC3CC=CCC3)cc2c1` (stereo not drawn) [6a, 3-(Benzo[d][1,3]dioxol-5-yl)-3-(7-(2-(cyclohex-3-en-1-ylamino)-2-oxoethoxy)naphthalen-2-yl)propanoic acid], for which the Ki turned out to be 0.076 ± 0.009 µM.

With `Cc1ccc(Cl)cc1C(CC(=O)O)c1ccc2ccc(OCC(=O)NC3CCCCC3)cc2c1` (stereo not drawn) [3p, 3-(5-Chloro-2-methylphenyl)-3-(7-(2-(cyclohexylamino)-2-oxoethoxy)naphthalen-2-yl)propanoic acid], the Ki turned out to be 0.234 ± 0.04 µM. Under `CCCC1CCCCN1C(=O)COc1ccc2ccc(C(CC(=O)O)c3ccc4c(c3)OCO4)cc2c1` (stereo not drawn) [6k, 3-(benzo[d][1,3]dioxol-5-yl)-3-(7-(2-oxo-2-(2-propylpiperidin-1-yl)ethoxy)naphthalen-2-yl)propanoic acid] stands 0.063 ± 0.003 µM. With `CC(C(=O)O)C(c1ccc2c(c1)OCO2)c1ccc2ccc(OCC(=O)NC3CCCCCC3)cc2c1` (stereo not drawn) [7c, 3-(benzo[d][1,3]dioxol-5-yl)-3-(7-(2-(cycloheptylamino)-2-oxoethoxy)naphthalen-2-yl)-2-methylpropanoic acid], the Ki amounted to 0.015 ± 0.001 µM. Under `Cc1cc2c(cc1C(CC(=O)O)c1ccc3ccc(OCC(=O)NC4CCCCC4)cc3c1)OCCO2` (stereo not drawn) [3q, 3-(7-(2-(cyclohexylamino)-2-oxoethoxy)naphthalen-2-yl)-3-(7-methyl-2,3-dihydrobenzo[b][1,4]dioxin-6-yl)propanoic acid] stands 0.015 ± 0.001 µM. Under `CC1(C)CCC(NC(=O)COc2ccc3ccc(C(CC(=O)O)c4ccc5c(c4)OCO5)cc3c2)CC1` (stereo not drawn) [6g, 3-(benzo[d][1,3]dioxol-5-yl)-3-(7-(2-((4,4-dimethylcyclohexyl)amino)-2-oxoethoxy)naphthalen-2-yl)propanoic acid] stands 0.056 ± 0.007 µM; under `O=C(O)CC(c1ccc2c(c1)OCO2)c1ccc2ccc(OCC(=O)Nc3ccccc3)cc2c1` (stereo not drawn) [6l, 3-(benzo[d][1,3]dioxol-5-yl)-3-(7-(2-oxo-2-(phenylamino)ethoxy)naphthalen-2-yl)propanoic acid], 1.88 µM. As to `Cc1cc2c(cc1C(CC(=O)O)c1ccc3ccc(OCC(=O)NC4CCCCCC4)cc3c1)OCCO2` (stereo not drawn) [2u, 3-(7-(2-(Cycloheptylamino)-2-oxoethoxy)naphthalen-2-yl)-3-(7-methyl-2,3-dihydrobenzo[b][1,4]dioxin-6-yl)propanoic acid], the inhibition constant (Ki) turned out to be 0.009 ± 0.003 µM. The same measure for `CCn1nnc2c(C)c(C(CC(=O)O)c3ccc4ccc(OCC(=O)NC5CCCCC5)cc4c3)ccc21` (stereo not drawn) [3h, 3-(7-(2-(cyclohexylamino)-2-oxoethoxy)naphthalen-2-yl)-3-(1-ethyl-4-methyl-1H-benzo[d][1,2,3]triazol-5-yl)propanoic acid]: 0.0048 ± 0.001 µM; for `Cc1ccc(Cl)cc1C(CC(=O)O)c1ccc2ccc(OCC(=O)NC3CCCCCC3)cc2c1` (stereo not drawn) [2v, 3-(5-chloro-2-methylphenyl)-3-(7-(2-(cycloheptylamino)-2-oxoethoxy)naphthalen-2-yl)propanoic acid]: 0.097 ± 0.013 µM. Take `CC1(C)Oc2ccc(C(CC(=O)O)c3ccc4ccc(OCC(=O)NC5CCCCC5)cc4c3)cc2O1` (stereo not drawn) [3j, 3-(7-(2-(cyclohexylamino)-2-oxoethoxy)naphthalen-2-yl)-3-(2,2-dimethylbenzo[d][1,3]dioxol-5-yl)propanoic acid]: the Ki is 0.14 ± 0.011 µM. Take `O=C(O)CC(c1ccc2c(c1)OCO2)c1ccc2ccc(OCC(=O)NC3CCCCCC3)nc2c1` (stereo not drawn) [9b, 3-(benzo[d][1,3]dioxol-5-yl)-3-(2-(2-(cycloheptylamino)-2-oxoethoxy)quinolin-7-yl)propanoic acid]: the Ki turned out to be 0.083 ± 0.037 µM. Under `CC1(NC(=O)COc2ccc3ccc(C(CC(=O)O)c4ccc5c(c4)OCO5)cc3c2)CCCCC1` (stereo not drawn) [6f, 3-(benzo[d][1,3]dioxol-5-yl)-3-(7-(2-((1-methylcyclohexyl)amino)-2-oxoethoxy)naphthalen-2-yl)propanoic acid] stands 0.477 ± 0.07 µM; under `COc1ccc(C(CC(=O)O)c2ccc3ccc(OCC(=O)NC4CCCCC4)cc3c2)c(C)c1` (stereo not drawn) [3b, 3-(7-(2-(cyclohexylamino)-2-oxoethoxy)naphthalen-2-yl)-3-(4-methoxy-2-methylphenyl)propanoic acid], 0.054 µM. Turning to `O=C(O)CC(c1ccc2c(c1)OCO2)c1ccc2ccc(OCC(=O)NC34CC5CC(CC(C5)C3)C4)cc2c1` [6e, 3-(7-(2-(((1S,3s)-adamantan-1-yl)amino)-2-oxoethoxy)naphthalen-2-yl)-3-(benzo[d][1,3]dioxol-5-yl)propanoic acid], the Ki was 0.516 ± 0.115 µM. The same measure for `O=C(O)CC(c1cccc(Cl)c1)c1ccc2ccc(OCC(=O)NC3C=CCCC3)cc2c1` (stereo not drawn) [4j, 3-(3-chlorophenyl)-3-(7-(2-(cyclohex-2-en-1-ylamino)-2-oxoethoxy)naphthalen-2-yl)propanoic acid]: 0.206 ± 0.015 µM; for `O=C(O)CC(c1ccc2c(c1)OCO2)c1cnc2ccc(OCC(=O)NC3CCCCCC3)cc2c1` (stereo not drawn) [9c, 3-(benzo[d][1,3]dioxol-5-yl)-3-(6-(2-(cycloheptylamino)-2-oxoethoxy)quinolin-3-yl)propanoic acid]: 0.064 µM.

On to `O=C(O)CC(c1ccc2ccc(OCC(=O)NC3CCCCCC3)cc2c1)c1ccc2occc2c1` (stereo not drawn) [2t, 3-(Benzofuran-5-yl)-3-(7-(2-(cycloheptylamino)-2-oxoethoxy)naphthalen-2-yl)propanoic acid], for which the Ki was 0.038 ± 0.002 µM.

In general, Ki refers to a measure of affinity in units of concentration, obtained from inhibition or displacement.
